# Test results taken from patent US20200397796A1, “METHODS OF TREATMENT OF CANCER COMPRISING CHK1 INHIBITORS” (SIERRA ONCOLOGY, INC., priority 2018, published 2020).
# Values joined by “and” are separate entries in the source; they are usually repeats but may differ in a detail not shown here. Identical values can stand only once. Like-named read-outs stand apart in the source and are kept apart here.
# Columns and labels:
# [1] = Plasma protein binding, ultracentrifugation, minipig; assay type: in vitro ADME; settings: for Percentage Bound / Percentage Free: Minipig plasma
# Protocol: (§1) The PK of SRA737 have been determined in the mouse, rat, dog and monkey following oral and IV administration (Table 3). […] An acceptable terminal elimination t1/2 was also observed in each species. […] The plasma protein binding of SRA737 at 1 and 10 μM was examined in mouse, minipig, monkey and human plasma using ultracentrifugation and in dog plasma (10 μM) using rapid equilibrium dialysis.
# [2] = GLP 28-day repeat oral dose toxicity and toxicokinetics, minipig; assay type: in vivo
# Excerpt: Reference source not found.6.
# [3] = SRA737 plasma and tumor concentrations in HT29 xenograft model; assay type: in vivo, mouse; design: Tumor (6 h) concentration / Tumor (24 h) concentration: unit not given here; settings: for concentration at 6 h / concentration at 24 h: plasma
# Protocol: For each dose, columns from left to right are concentrations for plasma at 6 hours, plasma at 24 hours, tumor at 6 hours, and tumor at 24 hours, respectively.
# The effect of SRA737 on Gemcitabine induced CHK1 S296 autophosphorylation was assessed as described in Walton et al. (Oncotarget. 2016 Jan. 19; 7(3): 2329-2342), herein incorporated by reference for all it teaches. Briefly, mice bearing HT29 tumor xenografts were administered (i) vehicle control or (ii) gemcitabine (100 mg/kg in saline, IV) or (iii) a combination of SRA737 ([…]) and gemcitabine (100 mg/kg) with SRA737 administered 24 hours following gemcitabine administration (n=3 per time point per treatment). […] Exposure in the tumor was greater than 10-fold higher than in plasma. The circulating plasma concentration at this 24-hour timepoint corresponded to a free drug concentration of approximately 6 nM (2 ng/mL) based on plasma protein binding in mice of 94%.
# Single dose PK, mouse = assay type: in vivo
# Protocol: as §1
# LL/2 (lung cancer) = test: In vivo efficacy, LL/2 syngeneic model; design: species or system mouse; settings: data not shown
# Protocol: (§2) A program of in vivo efficacy studies was performed to assess the activity of SRA737 in combination with genotoxic chemotherapy and targeted agents, and as monotherapy.
# (§3) One of these models also carried a MYCN amplification. A fourth HGSOC PDX model with partial resistance to PARPi was also sensitive to high dose SRA737 monotherapy.
# [4] = Plasma protein binding, ultracentrifugation, mouse; assay type: in vitro ADME; settings: for Percentage Bound / Percentage Free: Mouse plasma
# Protocol: as §1
# CYP 2A6 = CYP 2A6 (Homo sapiens, UniProt P11509); test: CYP inhibition, 2A6; assay type: in vitro ADME; settings: highest concentration investigated
# [5] = test system: SJSA-1 human osteosarcoma; test: In vivo efficacy, SJSA-1 xenograft model; design: species or system mouse; settings: data not shown
# Protocol: as §2, §3
# PDX model of TNBC = test: In vivo efficacy, PDX model of TNBC; design: species or system mouse; settings: with low-dose gemcitabine; data not shown
# Protocol: as §2, §3
# CYP 3A4 = CYP 3A4 (Homo sapiens, UniProt P08684); test: CYP inhibition, 3A4; assay type: in vitro ADME; settings: highest concentration investigated
# OVCAR3 model of HGSOC = test: In vivo efficacy, OVCAR3 CDX model; design: species or system mouse; settings: data not shown
# Protocol: as §2, §3
# Single dose PK, monkey = assay type: in vivo
# Protocol: as §1
# [6] = in vivo, po, Minipig Female, 10 mg/kg/day (HNSTD), daily dosing for 28 days
# [7] = in vivo, po, Minipig Female, 40 mg/kg/day, daily dosing for 28 days
# [8] = in vivo, po, Minipig Female, 75 mg/kg/day, daily dosing for 28 days
# [9] = in vivo, po, Minipig Male, 10 mg/kg/day (HNSTD), daily dosing for 28 days
# [10] = in vivo, po, Minipig Male, 40 mg/kg/day, daily dosing for 28 days
# [11] = in vivo, Mouse IV 10 mg/kg single dose
# [12] = in vivo, Mouse oral 10 mg/kg single dose
# [13] = in vivo, Monkey IV 1 mg/kg single dose
# [14] = in vivo, Monkey oral 2 mg/kg single dose
# [15] = in vivo, Monkey oral 10 mg/kg single dose
# Sequence of CYP 2A6 (P11509 whole entry): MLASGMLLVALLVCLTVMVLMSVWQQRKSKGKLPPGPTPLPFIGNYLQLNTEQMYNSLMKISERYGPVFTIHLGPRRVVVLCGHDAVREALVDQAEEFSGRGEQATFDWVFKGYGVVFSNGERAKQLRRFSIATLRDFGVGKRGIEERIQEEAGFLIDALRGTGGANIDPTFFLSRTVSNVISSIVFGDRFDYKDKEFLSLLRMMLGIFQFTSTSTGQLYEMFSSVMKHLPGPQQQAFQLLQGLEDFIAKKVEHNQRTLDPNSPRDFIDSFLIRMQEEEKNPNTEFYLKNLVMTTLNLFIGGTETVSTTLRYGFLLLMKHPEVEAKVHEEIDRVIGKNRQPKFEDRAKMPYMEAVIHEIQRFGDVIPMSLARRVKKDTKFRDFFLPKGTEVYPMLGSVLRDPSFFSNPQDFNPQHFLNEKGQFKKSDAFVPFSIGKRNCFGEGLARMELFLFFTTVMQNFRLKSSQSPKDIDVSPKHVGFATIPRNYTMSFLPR
# Sequence of CYP 3A4 (P08684 whole entry): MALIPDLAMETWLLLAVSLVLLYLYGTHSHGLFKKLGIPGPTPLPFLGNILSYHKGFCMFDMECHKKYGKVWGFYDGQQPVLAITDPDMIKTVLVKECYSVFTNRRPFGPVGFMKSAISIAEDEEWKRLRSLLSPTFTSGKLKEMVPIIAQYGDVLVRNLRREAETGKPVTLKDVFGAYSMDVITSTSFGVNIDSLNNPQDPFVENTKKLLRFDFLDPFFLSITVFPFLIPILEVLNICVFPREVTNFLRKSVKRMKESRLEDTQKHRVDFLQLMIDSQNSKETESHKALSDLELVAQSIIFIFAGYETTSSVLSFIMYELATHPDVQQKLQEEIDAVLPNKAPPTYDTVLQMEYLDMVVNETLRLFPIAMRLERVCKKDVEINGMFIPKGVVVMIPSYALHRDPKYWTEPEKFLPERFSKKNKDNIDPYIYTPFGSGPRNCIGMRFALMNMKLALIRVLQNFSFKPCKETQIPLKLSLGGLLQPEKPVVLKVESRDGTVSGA
smiles,measurement,setting,value
"N#Cc1cnc(Nc2cc(NCC3CNCCO3)c(C(F)(F)F)cn2)cn1 (stereo not shown) [SRA737, 5-[[4-[[morpholin-2-yl]methylamino]-5-(trifluoromethyl)-2-pyridyl]amino]pyrazine-2-carbonitrile]",Percentage Bound,[1]; 1 μM,85.2%
same,Percentage Free,[1]; 1 μM,14.9%
same,Percentage Bound,[1]; 10 μM,75.5%
same,Percentage Free,[1]; 10 μM,24.5%
same,fraction unbound,"[1]; plasma, minipig, summary of 1 and 10 μM",~0.2
same,AUC(0-t),[2]; [6],6560 ng·h/mL
same,Cmax,[2]; [6],515 ng/mL
same,half-life,[2]; [6],13.6 h
same,AUC(0-t),[2]; [7],45500 ng·h/mL
same,Cmax,[2]; [7],2830 ng/mL
same,half-life,[2]; [7],14.3 h
same,AUC(0-t),[2]; [8],97000 ng·h/mL
same,Cmax,[2]; [8],5340 ng/mL
same,half-life,[2]; [8],31.5 h
same,AUC(0-t),[2]; [9],6480 ng·h/mL
same,Cmax,[2]; [9],622 ng/mL
same,half-life,[2]; [9],9.25 h
same,AUC(0-t),[2]; [10],22200 ng·h/mL
same,Cmax at 28 days,[2]; [10],2070 ng/mL
same,half-life,[2]; [10],7.66 h
same,toxicological findings,"[2]; minipig pivotal study, dose-dependent, reversible on cessation",bone marrow toxicity
same,Tumor (6 h) concentration,[3]; 3.125 mg/kg,3183.276
same,Tumor (24 h) concentration,[3]; 3.125 mg/kg,645.7623
same,Tumor (6 h) concentration,[3]; 6.25 mg/kg,4011.501
same,Tumor (24 h) concentration,[3]; 6.25 mg/kg,965.7797
same,Tumor (6 h) concentration,[3]; 12.5 mg/kg,19009.57
same,Tumor (24 h) concentration,[3]; 12.5 mg/kg,3974.933
same,Tumor (6 h) concentration,[3]; 25 mg/kg,37516
same,Tumor (24 h) concentration,[3]; 25 mg/kg,16289.53
same,Tumor (6 h) concentration,[3]; 50 mg/kg,76331.2
same,Tumor (24 h) concentration,[3]; 50 mg/kg,27483.73
same,Tumor (6 h) concentration,[3]; 100 mg/kg,131506.7
same,Tumor (24 h) concentration,[3]; 100 mg/kg,101764.1
same,concentration at 6 h,"[3]; mouse, oral, 3.125 mg/kg",194 nM
same,concentration at 24 h,"[3]; mouse, oral, 3.125 mg/kg, read-out: Plasma (24 h) concentration",0 nM
same,concentration at 6 h,"[3]; mouse, oral, 6.25 mg/kg",323 nM
same,concentration at 24 h,"[3]; mouse, oral, 6.25 mg/kg, read-out: Plasma (24 h) concentration",13.1 nM
same,concentration at 24 h,"[3]; mouse, oral, 12.5 mg/kg, 24-hour timepoint, based on plasma protein binding in mice of 94%, read-out: free drug concentration in plasma",~6 nM and ~2 ng/mL
same,concentration at 24 h,"[3]; mouse, oral, 12.5 mg/kg, at 24 hours, approximate, read-out: minimum (total) plasma concentration corresponding to inhibition of pS296 Chk1",~100 nM
same,concentration at 24 h,"[3]; mouse, oral, 12.5 mg/kg, at 24 hours, read-out: minimum (total) plasma concentration corresponding to inhibition of pS296 Chk1",~40 ng/mL
same,concentration at 24 h,"[3]; mouse, oral, 12.5 mg/kg, read-out: Plasma (24 h) concentration",78 ± 27 nM
same,Kp,"[3]; mouse, tumor, oral, HT29 xenograft mice, read-out: exposure in the tumor relative to plasma",> 10
same,Foral,"Single dose PK, mouse; Mouse oral 10 mg/kg single dose",105%
same,AUC(0-t),"Single dose PK, mouse; [11]",3770 ng·h/mL
same,half-life,"Single dose PK, mouse; [11]",2.9 h
same,AUC(0-t),"Single dose PK, mouse; [12]",3940 ng·h/mL
same,Cmax,"Single dose PK, mouse; [12]",610 ng/mL
same,Tmax,"Single dose PK, mouse; [12]",1 h
same,half-life,"Single dose PK, mouse; [12]",2.8 h
same,single agent efficacy,LL/2 (lung cancer),single agent efficacy
same,Percentage Bound,[4]; 1 μM,94.5%
same,Percentage Free,[4]; 1 μM,5.5%
same,Percentage Bound,[4]; 10 μM,93.4%
same,Percentage Free,[4]; 10 μM,6.6%
same,fraction unbound,"[4]; mouse, plasma, summary of 1 and 10 μM",0.06
same,plasma protein binding,"[4]; mouse, summary of 1 and 10 μM",~94%
same,IC50,CYP 2A6,10 to 50 µM
same,antitumor activity,[5]; in combination with standard-dose gemcitabine,"Significant, dose-dependent antitumor activity"
same,synergy,[5]; with low-dose gemcitabine,Synergy
same,synergy,PDX model of TNBC,Synergy
same,IC50,CYP 3A4,10 to 50 µM
same,single agent efficacy,OVCAR3 model of HGSOC; single agent,single agent efficacy
same,synergy,OVCAR3 model of HGSOC; with low-dose gemcitabine,Synergy
same,Foral,"Single dose PK, monkey; Monkey oral 2 mg/kg single dose",90%
same,Foral,"Single dose PK, monkey; Monkey oral 10 mg/kg single dose",104%
same,AUC(0-t),"Single dose PK, monkey; [13]",1520 ng·h/mL
same,half-life,"Single dose PK, monkey; [13]",5.3 h
same,AUC(0-t),"Single dose PK, monkey; [14]",2730 ng·h/mL
same,Cmax,"Single dose PK, monkey; [14]",500 ng/mL
same,Tmax,"Single dose PK, monkey; [14]",1 to 2 h
same,half-life,"Single dose PK, monkey; [14]",5 h
same,AUC(0-t),"Single dose PK, monkey; [15]",15800 ng·h/mL
same,Cmax,"Single dose PK, monkey; [15]",2640 ng/mL
same,Tmax,"Single dose PK, monkey; [15]",2 to 4 h
same,half-life,"Single dose PK, monkey; [15]",5.1 h
same,bioavailability,"Single dose PK, monkey; in vivo, monkey, oral 2 and 10 mg/kg, read-out: absolute oral bioavailability (% F)",90 to 104%
